# Reference: PubChem BioAssay AID1508612
# Assay: passive permeability, PAMPA, ADME assay (AID 1508612)
# Conditions: pH 7.4, 30.0 min, 50.0 µM
row,SMILES,Papp [×10⁻⁶ cm/s]
1,Cc1ccc(S(=O)(=O)Nc2ccccc2C(=O)Nc2nc(-c3ccccc3)c(C)s2)cc1,30.1
2,O=C(Cc1ccc(-c2csc(Nc3ccc(F)cc3)n2)s1)N1CCOCC1,> 1000
3,Cc1nc([N+](=O)[O-])cn1-c1ccc([N+](=O)[O-])cc1,27.9
4,O=C(CSc1nc(-c2ccc(F)cc2)[nH]c1-c1ccc(F)cc1)Nc1ccc2c(c1)OCCO2,11
5,COc1cc2c(cc1OC)C(C[C@H]1CN(S(=O)(=O)c3cccc(C#N)c3)CC[C@H]1CC(=O)O)=NCC2,3.25
6,Cc1cccc(C(=O)Nc2ccc(N3CCC(N4CCCCC4)CC3)c(C(=O)O)c2)c1,5.2
7,O=C(O)c1ccc(N2C(=O)/C(=C/c3ccc(-c4ccc([N+](=O)[O-])cc4)o3)C=C2c2ccccc2)cc1,34.3
8,COc1ccccc1CNS(=O)(=O)c1ccc(-c2cnc(C3CC3)o2)cc1,> 1000
9,CCN1CCN(C(=O)c2cc(-c3ccc(F)cc3)c3nncn3n2)CC1,159
10,COC(=O)CNC(=O)c1nc(-c2ccccc2OC)c2ccccn12,> 1000
11,O=C(Nc1ccccc1)C1CCN(c2nc(-c3ccc(Br)cc3)cs2)CC1,48.6
12,Cc1cnc(N2CCC(C(N)=O)CC2)nc1-c1cccc(N(C)C)c1,666
13,CC(C)Oc1cccc(-c2cnc(N3CCC(C(N)=O)CC3)s2)c1,810
14,CNc1oc(-c2cccc(Cl)c2Cl)nc1C#N,505
15,CCN(CC)C(=O)c1ccc(O)c(OC)c1,482
16,COc1cc(-c2cc3c(nc2-c2ccccc2)nc(C(=O)NC2CCN(C)CC2)n3C)ccn1,> 1000
17,O=C(Nc1ccccc1O)c1ccc(NC(=O)C2CC2)cc1,117
18,COc1ccc(NC(=O)c2[nH]c(C)c(C(C)=O)c2C)cc1S(=O)(=O)Nc1ccc(C#N)cc1,35.7
19,N=c1c2ccccc2nnn1-c1ccc(C(F)(F)F)cc1,148

row,SMILES,Papp [×10⁻⁶ cm/s]
1,C[C@]12CC[C@@H]3[C@H](CCC4=CC(=O)CC[C@]43C)[C@]1(O)CC[C@@]2(O)C(=O)CO,30.8
2,Brc1ccc(-c2csc(N3CCCCC3)n2)cc1,111
3,CC(=O)c1c(C)[nH]c(C(=O)Nc2cccc([S+](=O)([O-])Nc3ccccc3C)c2)c1C,628
4,Cc1noc(C)c1-c1csc(N2CCC(C(N)=O)CC2)n1,58.9
5,O=c1c(-c2ccc(O)cc2)coc2cc(O)ccc12,< 1
6,COc1ccc(S(=O)(=O)N2CCCCCC2)cc1NC(=O)Cc1n[nH]c(=O)c2ccccc12,< 1
7,NCC(=O)Nc1cncc(-c2nn3c(=O)cc(N4CCNCC4)nc3s2)c1,< 1
8,CC(Nc1ccc([S+](=O)([O-])Nc2nccs2)cc1)c1ccccc1 (stereo not drawn),641
9,c1ccc(-c2nc(N3CCCCCC3)c3ccccc3n2)nc1,> 1000
10,COc1ccc(C2c3c(oc4ccc(C)cc4c3=O)C(=O)N2CCCN2CCOCC2)cc1OC (stereo not drawn),403
11,COc1ccc(CCn2c(N)cc(=O)[nH]c2=S)cc1OC,7.34
12,COc1cc2c(c(OC)c1OC)-c1ccc(OC)c(=O)cc1[C@@H](NC(C)=O)CC2,1.93
13,COc1ccnc(NC(=S)N2CCN(c3cc(C(F)(F)F)cc(C(F)(F)F)c3)CC2)c1,373
14,CC(=O)c1ccc(N2CCN(S(=O)(=O)c3cc4c(cc3Cl)NC(=O)C4)CC2)cc1,558
15,COc1ccccc1CNc1ccc(S(=O)(=O)Nc2nccs2)cc1,512
16,O=C1Nc2ccccc2/C1=C\c1cc(Br)c(O)c(Br)c1,50.5
17,Cc1ccnc(N=C(N)N2CCN(c3cccc(C(F)(F)F)c3)CC2)c1,383
18,c1coc(-c2nc3ccncc3[nH]2)c1,27.9
19,COC(=O)c1cc2occc2n1Cc1nc(-c2ccc(C)cc2)oc1C,40.3

row,SMILES,Papp [×10⁻⁶ cm/s]
1,CCc1ccc(NC(=O)c2[nH]c(C)c(C(C)=O)c2C)cc1S(=O)(=O)Nc1ccc(C#N)cc1,48.1
2,CC[C@H]1CN2CCC3CC(OC)C(OC)CC3[C@@H]2C[C@@H]1C[C@H]1NCCC2=C1CC(OC)=C(O)C2 (stereo partly drawn),153
3,COc1ccc(S(=O)(=O)N2CCN(C(=O)C3COc4ccccc4O3)CC2)cc1 (stereo not drawn),> 1000
4,NC1CCN(c2nc(-c3ccc(Br)cc3)cs2)CC1,> 1000
5,COC(=O)c1ccc(NS(=O)(=O)c2c(C)nc3sccn3c2=O)cc1,333
6,COc1ccc2c(c1)N(C[C@H](C)CN(C)C)c1ccccc1S2,902
7,CCOc1ccc(CCNC(=O)c2cc3cnccc3n2Cc2cccc(C)c2)cc1OCC,184
8,N[C@@H](Cc1cc(Br)c(O)c(Br)c1)C(=O)O,3.64
9,Cn1cc(Nc2cnccc2C(=O)O)c2cccnc21,3.2
10,Cn1nnnc1Sc1ncnc2scc(-c3cccc(S(C)(=O)=O)c3)c12,93.9
11,NC(=O)C1CCN(c2nc(-c3ccccc3C(F)(F)F)cs2)CC1,544
12,OCc1ccc(-c2ccc(-c3ccc(CO)s3)o2)s1,956
13,N=c1c2c(n(Cc3ccccc3)c3c1CCC3)CCC2,< 1
14,Cc1cc(Nc2ccc(Br)c(C)c2)n2nc(C)nc2n1,874
15,C[C@H]1CN(C(=O)Nc2ccc(F)cc2F)C[C@@H]1c1nc(-c2ccccc2)no1,> 1000
16,Cc1cccc(-n2cnc3cc(C(=O)N4CCCCC4)ccc32)c1,912
17,CCc1nc2c(sc3nc4c(cc32)COC(C)(C)C4)c(=O)n1Cc1ccco1,> 1000
18,CC1CC(C)(C)N(C(=O)CN2C(=O)c3ccccc3C2=O)c2ccccc21 (stereo not drawn),> 1000
19,COc1cccc2nc(-c3cccs3)nc(NN3C(=O)C=C(C)C3=O)c12,353

# The remaining lines, values ahead:
row,Papp [×10⁻⁶ cm/s],SMILES
1,> 1000,COc1cc(Nc2nc(-c3ccncc3)nc3ccccc23)ccc1NS(C)(=O)=O
2,13.2,Cc1ccc(-n2ncc3c(Nc4cccc(C(=O)O)c4)ncnc32)cc1
3,5.55,CCn1cc(CNC(=O)c2cc(-c3ccc(C)cc3)nc3ccc(Br)cc23)c(C)n1
4,834,COc1ccc(CN2CCNc3cc(Nc4ccccc4)ncc3C2)cn1
5,> 1000,O=C(c1nc(-c2ccc(Cl)cc2Cl)c2cnccn12)N1CCOCC1
6,28,COC(=N)c1nc2ccc3ncnc(Nc4ccc(F)cc4Br)c3c2s1
7,> 1000,N#CC1(c2ccc(NC(=O)c3cccnc3NCc3ccncc3)cc2)CCCC1
8,1.51,CC(=O)c1c(C)[nH]c(C(=O)Nc2cccc([S+](=O)([O-])Nc3ccncc3)c2)c1C
9,1.2,O=[N+]([O-])c1ccc(CNc2ccc([S+](=O)([O-])Nc3nccs3)cc2)c(O)c1
10,> 1000,CC(=O)Nc1ccc(CN2CCc3nc(C(C)C)nc(-c4ccc(Cl)cc4)c3CC2)cc1
11,32,O=C(NCCCO)c1ccc(-c2ncc3cnc(-c4cccc(F)c4)cn23)cc1
12,1.8,O=C(NCCN1CCOCC1)C1CC(=O)N(c2n[nH]c3cc(Br)ccc23)C1 (stereo not drawn)
13,> 1000,CCC(C)N(C)C(=O)c1cc2ccccc2c(-c2ccccc2Cl)n1 (stereo not drawn)
14,478,OCc1ccc(-c2cc3c(ccn3Cc3cccnc3)c(C3=CCOCC3)n2)cc1
15,5.2,CCCCOc1ccccc1C(=O)Nc1ccccc1C(=O)Nc1cccc(S(=O)(=O)C(F)(F)F)c1
16,175,O=C1NCc2ccc(-c3cc4c(ccn4Cc4cccnc4)c(C4=CCOCC4)n3)cc21
17,74.7,CC(=O)c1c(C)[nH]c(C(=O)Nc2ccc(OCCCN(C)C)c(S(=O)(=O)Nc3ccc(Br)cc3)c2)c1C
18,501,O=C(Nc1nc(-c2ccccc2)cs1)c1ccncc1NS(=O)(=O)c1ccccc1
19,36.3,CCC(=O)NC(c1cccs1)c1cc([N+](=O)[O-])c2cccnc2c1O (stereo not drawn)
20,10.1,CC(C)(C)c1ccc(-c2nc(SCCCOc3ccccc3)n3[nH]c(=O)cc3n2)cc1
21,> 1000,Cn1cc2c3c(cccc31)CN(C(=O)c1ccc(F)c(Cl)c1)CC2
22,58.9,CNC(=O)c1cccc(-c2cnc(Nc3cccc(C(F)(F)F)c3)c3c2CCO3)c1
23,> 1000,CCOc1ccc(CCNC(=O)c2cc3sccc3n2Cc2ccc(-n3cncn3)cc2)cc1OCC
24,250,Clc1cccc(Nc2nc(-c3ccncc3)nc3ccccc23)c1
25,> 1000,CC(C)c1ccccc1-c1ncc(F)c(NC2(c3ccc(-c4cccnc4)cc3)CC2)n1
26,> 1000,CCN(CC)CCNC(=O)C1CCN(c2nn3cc(-c4ccc(F)cc4)nc3s2)CC1

row,Papp [×10⁻⁶ cm/s],SMILES
1,> 1000,Cc1cnc(CNc2nc(-c3ccccc3Cl)nc3ccccc23)cn1
2,> 1000,Fc1ccc(-c2nc(-c3ccncc3)nc3ccccc23)cc1F
3,758,O=C(NC1CC1)c1ccc(CSCc2ccccc2Cl)o1
4,> 1000,CCOc1cc2c(cc1OCC)CN(C(=O)c1cc3sccc3n1Cc1ccccc1)CC2
5,14,S=C(NCCCc1cnc[nH]1)NCCCN(Cc1ccc(Cl)c(Cl)c1)c1ccc(Br)cn1
6,> 1000,CN1CCN(c2ccc(Nc3nc(-c4ccncc4)nc4ccccc34)cc2F)CC1
7,> 1000,CCCCn1cnc2cc(NCc3ccc(OCC)cc3)ccc21
8,> 1000,COc1ccnc(NC(=S)N2CCN(c3ncc(C(F)(F)F)cc3Cl)CC2)c1
9,343,Cc1cccc(-c2noc([C@@H]3Cc4nc[nH]c4CN3)n2)c1
10,> 1000,O=c1cc(CSc2ccc(Cl)cc2)nc(-c2ccccn2)[nH]1
11,350,O=C(NCc1ccccc1)c1nc(S(=O)(=O)Cc2ccc(F)cc2)ncc1Cl
12,297,Nc1nc2c(s1)C(c1ccc(Br)cc1)CC(=O)N2 (stereo not drawn)
13,72.7,O=S(=O)(Nc1nccs1)c1ccc(NCc2cccc(Br)c2O)cc1
14,292,O=C(NCCCN1CCCC1=O)c1ccc(-c2ncc3cnc(-c4ccccc4)cn23)cc1
15,833,Cc1ccc(CSCc2ccc(C(=O)NC3CC3)o2)cc1
16,> 1000,CCCn1cnc2cc(NCc3ccc(OC)cc3OC)ccc21
17,< 1,Cc1sc(NC(=O)Cc2ccc3c(c2)OCO3)nc1-c1ccc2c(c1)CCN2C
18,> 1000,O=C1CCCC2=C1C(c1ccncc1Br)N=C(Nc1nc3ccccc3o1)N2 (stereo not drawn)
19,604,COc1ccccc1CNC(=O)CCCn1nc(C)c2c(C)n(-c3ccc(C)cc3)nc2c1=O
20,178,Oc1ccc(CNc2ccc(F)cc2F)c2cccnc12
21,339,Cc1noc(C)c1S(=O)(=O)Nc1cnccc1C(=O)Nc1nc(-c2ccccc2)cs1
22,5.3,O=C(NCCCCc1ccccc1)C1CCN(c2nc(-c3ccc(Br)cc3)cs2)CC1
23,30.3,COc1nccc(-c2nc(Nc3ccc(F)c(F)c3)c3ccccc3n2)c1Cl
24,1.8,Cc1ccc(NC(=O)CSc2ncc(S(=O)(=O)c3ccc(C(C)C)cc3)c(=O)[nH]2)cc1C
25,820,CC(NCc1ccc2c(c1)nc(NC(=O)c1ccc(-c3cn[nH]c3)s1)n2CC(C)(C)O)C(C)(C)C (stereo not drawn)
